# Measurements reported in US8691187B2, “Imaging agents for detecting neurological disorders” (Eli Lilly and Company, priority 2009, dated 2014).
# Columns and labels:
# Aβ plaques = biological target: T1, Aβ plaques (Homo sapiens, UniProt P05067); test: Fluorescent compound staining on human AD brain sections (β-amyloid IHC double labeling); type: binding; settings: 100 uM compound, qualitative rating + to ++++ or words
# T1 construct: Native forms of tau (various isoforms, hyperphosphorylated) and amyloid aggregates are present in brain sections; from tissue; host or cells: human AD brain, frozen frontal lobe sections
# T1 sequence (P05067 672-713 limits assumed): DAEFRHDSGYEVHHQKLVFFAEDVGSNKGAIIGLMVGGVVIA
# Excerpt: (§1) Native forms of tau (various isoforms, hyperphosphorylated) and amyloid aggregates are present in brain sections and therefore preferred for compound testing. Using the self-fluorescence of a test compound can give an indication of whether the compound binds to tau tangles/PHFs and/or amyloid plaques. This is further confirmed by immunostaining with Aβ and tau antibodies and overlaying the images. […] However, it is possible to “rate” the signal strength qualitatively and distinguish compounds that show binding to these aggregates.
# (§2) In one of the embodiments of the present invention, the self-fluorescence of the compound of formula (I) is used to determine whether the compound binds to tau/amyloid in the brain sections and to give it a qualitative rating. The next step is to proceed to the autoradiography using different brain types for further evaluation and quantitation.
# (§3) Tau fluorescent compounds staining on human brain sections (Double or triple labeled with tau and β-amyloid Immunohistochemistry (IHC))
# (§4) Serial sections (6 μm thick) from OCT-embedded frozen blocks of front lobe were used for staining (OCT—optimal cutting temperature). After fixation and quenching of autofluorescence, tissue sections were incubated with in 100 μM of tau compound in 50% ethanol PBS for 60 min. Then sections were dipped briefly into water, rinsed in PBS, blocked with 5% normal horse serum in PBS for 1 hour at room temperature. After blocking, the tissue was incubated with tau or β-amyloid primary antibody at 4° C. overnight in a humid chamber. Next day, the sections were washed with PBS and then incubated with secondary antibody for 1 hour.
# tau aggregates = test: Fluorescent compound staining on human AD brain sections (tau IHC double labeling); type: binding; settings: 100 uM compound, qualitative rating + to ++++ or words
# Excerpt: as §1, §2, §3, §4
# AD brain sections = test: Fluorescent compound staining on human AD brain sections (self-fluorescence, overall binding); settings: for binding of fluorescent compound to AD brain sections confirmed by immunostaining with tau or Aβ antibodies: figure legends, double labeling at 100 uM; for Brain Section Staining: fluorescence: Table 1 quinolines, 100 uM compound
# Excerpt: as §1, §2, §3, §4
Compound,Brain Section Staining: Ab (amyloid) (Aβ plaques; Table 1 quinolines),Brain Section Staining: tau (tau aggregates; Table 1 quinolines),also measured
CN(C)c1ccc(-c2ccc3cc(O)ccc3n2)cc1 [Compound T531],,Binds to Tau,
"CNc1ccc(-c2ccc3cc(OC)ccc3n2)cc1F.Cl.Cl [Compound T483, 2-Fluoro-4-(6-methoxyquinolin-2-yl)-N-methylaniline dihydrochloride]",,Mostly binds to Tau,
CN(C)CCNc1cc(-c2ccccc2)nc2ccccc12 [Compound T048],binds to Ab (amyloid) (100 uM),,
"Cl.Cl.FCCNc1ccc(-c2ccc3ccccc3n2)cc1 [Compound T411, N-(2-Fluoroethyl)-4-(quinolin-2-yl)aniline dihydrochloride]",weakly binds to Ab,binds to tau,
FCCOCCOCCn1c(C#Cc2cnc3[nH]ccc3c2)nc2ccccc21.O=C(O)C(F)(F)F [Compound T527],,,binding of fluorescent compound to AD brain sections confirmed by immunostaining with tau or Aβ antibodies (AD brain sections): binding
"FCCOCCOCCNc1ccc(-c2ccc3ccccc3n2)cn1 [Compound T525, N-(2-(2-(2-Fluoroethoxy)ethoxy)ethyl)-5-(quinolin-2-yl)pyridin-2-amine]",,,binding of fluorescent compound to AD brain sections confirmed by immunostaining with tau or Aβ antibodies (AD brain sections): binding
"FCCCNc1ccc(-c2ccn3c(n2)nc2ccccc23)cc1 [Compound T542, 4-(Benzo[4,5]imidazo[1,2-a]pyrimidin-2-yl)-N-(3-fluoropropyl)aniline]",,,binding of fluorescent compound to AD brain sections confirmed by immunostaining with tau or Aβ antibodies (AD brain sections): binding
FCCn1c(C#Cc2ccc3ccccc3n2)nc2ccccc21.O=C(O)C(F)(F)F [Compound T496],,,Brain Section Staining: Ab (amyloid) (Aβ plaques; Table 2 acetylenes): Weakly binds to Ab
"Cn1cnc2ccc(-c3cc(F)c4ccccc4n3)cc21 [Compound T485, 4-Fluoro-2-(1-methyl-1H-benzo[d]imidazol-6-yl)quinoline 2,2,2-trifluoroacetate]",weakly binds to Ab,,
"COc1ccc2nc(-c3ccc(N(C)C)cc3)ccc2c1 [Compound T139, 4-(6-Methoxyquinolin-2-yl)-N,N-dimethylaniline]",binds to amyloid and Tau,binds to amyloid and Tau,
[N-]=[N+]=NCCOCCOCCNc1ccc(-c2ccc3ccccc3n2)cc1 [Compound T412],not to amyloid,binds to tau,
CNc1ccc(C#Cc2nc3cc(OC)ccc3s2)cc1F [Compound T448],,,Brain Section Staining: Ab (amyloid) (Aβ plaques; Table 2 acetylenes): binds to Ab
CN(C)c1ccc(/C=C/c2ccc3cc(F)ccc3n2)cc1 [Compound T429],binds to Ab,,
"CNc1ccc(C#Cc2nc3ccc(O)cc3s2)cc1F [T118/ W366, 2-((3-fluoro-4-(methylamino)phenyl)ethynyl)benzo[d]thiazol-6-ol]",,,Brain Section Staining: Ab (amyloid) (Aβ plaques; Table 2 acetylenes): binds to Ab
"FCCOCCOCCOc1ccc2nc(-c3ccc(N4CCOCC4)nc3)ccc2c1 [Compound T539, 4-(5-(6-(2-(2-(2-Fluoroethoxy)ethoxy)ethoxy)quinolin-2-yl)pyridin-2-yl)morpholine]",,,binding of fluorescent compound to AD brain sections confirmed by immunostaining with tau or Aβ antibodies (AD brain sections): binding
"c1ccc2nc(-c3ccncc3)ccc2c1 [Compound T123, 2-(Pyridin-4-yl)quinoline]",,,Brain Section Staining: fluorescence (AD brain sections): No fluorescence is detected at 100 uM
"Nc1ccc(-c2ccc3ccccc3n2)cc1F [Compound T445, 2-Fluoro-4-(quinolin-2-yl) aniline]",,binds to Tau,
"CNc1ccc(-c2cc3ccccc3cn2)cc1.Cl [Compound T501, 4-(Isoquinolin-3-yl)-N-methylaniline]",,,Brain Section Staining: fluorescence (AD brain sections): No fluorescence
FCCOCCOCCNc1ccc(-c2ccc3ccccc3n2)cc1 [Compound T442],binds to Tau and Ab,binds to Tau and Ab,
CN1CCN(c2ccc(-c3cc(F)c4ccccc4n3)cc2)CC1 [Compound T559],,,Brain Section Staining: fluorescence (AD brain sections): No fluorescence
"FCCOCCOCCOc1ccc2nc(-c3ccc(N4CCOCC4)cc3)ccc2c1 [Compound T549, 4-(4-(6-(2-(2-(2-Fluoroethoxy)ethoxy)ethoxy)quinolin-2-yl)phenyl)morpholine]",,Binds to Tau,
"FCCCNc1ccc(-c2ccnc3nc4ccccc4n23)cc1 [Compound T544, 4-(Benzo[4,5]imidazo[1,2-a]pyrimidin-4-yl)-N-(3-fluoropropyl)aniline]",,,binding of fluorescent compound to AD brain sections confirmed by immunostaining with tau or Aβ antibodies (AD brain sections): binding
"FCCCNc1ccc(C#Cc2nc3ccccc3[nH]2)cc1 [Compound T465, 4-((1H-Benzo[d]imidazol-2-yl)ethynyl)-N-(3-fluoropropyl)aniline]",,,Brain Section Staining: tau (tau aggregates; Table 2 acetylenes): binds to tau and Ab; Brain Section Staining: Ab (amyloid) (Aβ plaques; Table 2 acetylenes): binds to tau and Ab
CNc1ccc(C#Cc2nc3ccccc3n2CCOCCOCCF)cc1.O=C(O)C(F)(F)F [Compound T541],,,binding of fluorescent compound to AD brain sections confirmed by immunostaining with tau or Aβ antibodies (AD brain sections): binding
"CN1CCN(c2ccc(-c3ccc4cc(OCCOCCOCCF)ccc4n3)cc2)CC1 [Compound T550, 6-(2-(2-(2-Fluoroethoxy)ethoxy)ethoxy)-2-(4-(4-methylpiperazin-1-yl)phenyl)quinoline]",,Binds to Tau,
"Fc1ccc(-c2ccc3ccccc3n2)cn1 [Compound T455, 2-(6-Fluoropyridin-3-yl)quinoline]",,,Brain Section Staining: fluorescence (AD brain sections): No fluorescence
Fc1ccc(C#Cc2ccc3scnc3c2)cn1 [T114/ W313],,,Brain Section Staining: tau (tau aggregates; Table 2 acetylenes): stains amyloid and tau; Brain Section Staining: Ab (amyloid) (Aβ plaques; Table 2 acetylenes): stains amyloid and tau
"CN(C)c1ccc(-c2ccc3ccccc3n2)cn1 [Compound T125, N,N-Dimethyl-5-(quinolin-2-yl)pyridin-2-amine]",,staining shows strong binding to tau,
CNc1ccc(-c2ccc3cc(OCCF)ccc3n2)cc1.Cl.Cl [Compound T409],binds to amyloid,,

# Continued, in another order:
Brain Section Staining: Ab (amyloid) (Aβ plaques; Table 1 quinolines),Compound,Brain Section Staining: tau (tau aggregates; Table 1 quinolines),also measured
binds to Ab,"Cn1ccc2cc(-c3ccc4ccccc4n3)ccc21 [Compound T453, 2-(1-Methyl-1H-indol-5-yl)quinoline]",,
binds to Ab mostly,CN(C)c1ccc(/C=C/c2cnc3ccccc3n2)cc1 [Compound T475],,
binds to Ab mostly,"CNc1ccc(-c2cnc3ccccc3c2)cc1 [Compound T477, N-Methyl-4-(quinolin-3-yl)aniline]",,
binds to Tau and Ab,"CN(C)c1ccc(-c2cc(F)c3ccccc3n2)cc1 [Compound T484, 4-(4-Fluoroquinolin-2-yl)-N—N-dimethylaniline]",binds to Tau,
binds to Ab,"FCCCNc1ccc(C#Cc2ccc3ccccc3n2)cc1 [Compound T454, N-(3-Fluoropropyl)-4-(quinolin-2-ylethynyl)aniline]",,Brain Section Staining: Ab (amyloid) (Aβ plaques; Table 2 acetylenes): binds to Ab
binds to amyloid and tau,CNc1ccc(-c2ccc3ccccc3n2)cc1F [Compound T458],binds to amyloid and tau,
binds to tau and amyloid,"COc1ccc2nc(-c3ccc(N)c(F)c3)ccc2c1 [Compound T467, 2-Fluoro-4-(6-methoxyquinolin-2-yl)aniline]",binds to tau and amyloid,
binds to tau and amyloid,"CNc1ccc(-c2cc(F)c3ccccc3n2)cc1 [Compound T466, 4-(4-fluoroquinolin-2-yl)-N-methylaniline]",binds to tau and amyloid,
